Patent publication US9062308B2, “Compositions and methods for treatment of tamoxifen resistant breast cancer” (The Johns Hopkins University, priority 2011, dated 2015)

What was measured:
[1] = test system: TGFα and HB-EGF; experiment: TGFα and HB-EGF expression in MCF-10A-B7 cells under EGFR inhibition; type: cell-based
[2] = test system: MCF-7-TMR cells; experiment: Soft agar colony formation in MCF-7-TMR cells; type: cell-based
Protocol: (§1) (2A) Immunoblot analysis of Phospho-EGFR (Y1068), EGFR, Phospho-MAPK, MAPK, Phospho-ERα (S118), ERα, and HOXB7 expression in MCF-7 cells treated long-term with either vehicle or 0.1 μM TAM (TMR1) or 1 μM TAM (TMR2). (2B) Immunoblot analysis of EGFR, Phospho-MAPK, MAPK and HOXB7 expression in MCF-7-TMR cells and BT474 transfected with either scrambled sequence siRNA or HOXB7-specific siRNA. (2C) Soft agar colony formation in BT474 cells and MCF-7-TMR cells transfected with either scrambled sequence siRNA or HOXB7-specific siRNA treated with Vehicle or 1 μM TAM.
(§2) HOXB7 in the acquisition of anti-estrogen resistance. Because of the observation of a striking similarity in phenotype between prolonged endocrine therapy primed TAM-resistant models and our HOXB7 overexpressing cells, the hypothesis that HOXB7 is a mediator of anti-estrogen resistance was investigated. MCF-7 cell lines were derived, and exposed to either vehicle or TAM (0.1 μM or 1 μM) for over 12 months (designated MCF-7-TMR1 or MCF-7-TMR2 respectively).

[3] = test system: MCF-7-B7 cells; experiment: Soft agar colony formation by MCF-7-B7 cells; type: cell-based
Protocol: (§3) FIG. 3 depicts evidence that HOXB7 promotes TAM resistance. (3A) Immunoblot analysis of Phospho-EGFR, EGFR, P-MAPK, MAPK and HOXB7 expression levels in MCF-7-Vec and MCF-7-HOXB7 cells. (3B) Tumor growth curve of MCF-7-HOXB7 cells implanted s.c. in athymic Swiss female mice and treated with either vehicle or TAM (83.3 μg/day), in the absence of an exogenous estrogen supplement. […] (3D) Semi quantitative RT-PCR analysis of mRNA expression levels of TGFα, HB-EGF and Amphiregulin in HOXB7 expressing MCF-7 cells and their vector controls (left); Amphiregulin or TGFα mRNA expression in MCF-7-vec and MCF-7-B7 cells treated with either scrambled sequence siRNA or ERα-specific siRNA (right) (3E) Diagram representing the HOXB7 binding sites in EGFR promoter region. MCF-7 cells were transfected with pcDNA3-Flag-HOXB7 and Vector plasmid, ChIP was performed by IP with either anti-Flag M2 antibody or control IgG. (3F) Luciferase activity of deletion/truncation constructs of the EGFR promoter, with (solid box) and without (slashed box) transfected HOXB7 plasmid, to map minimal region necessary for activation by HOXB7.

[4] = test system: MCF-7-Vec cells; experiment: TAM treatment in culture, apoptosis and cell viability, MCF-7-Vec cells; type: cell-based; details: MCF-7-Vec cells in culture
[5] = test system: MCF-7-B7 cells; experiment: TAM treatment in culture, apoptosis and cell viability, MCF-7-B7 cells; type: cell-based; details: MCF-7-B7 cells in culture
[6] = test system: MCF-7-B7 xenografts; experiment: Xenograft analysis, tumor growth of MCF-7-B7 cells implanted s.c. in athymic mice; type: in vivo; details: MCF-7-B7 xenografts in immunodeficient mice; TAM 83.3 μg/day; no exogenous estrogen supplement
Protocol: as §3
Xenograft Analysis. […] At necropsy, primary tumors, liver, lung and spleen were evaluated for the presence of macroscopic tumors. […]

[7] = test system: EGFR, p44/42 MAPK and ERα phosphorylation; experiment: EGFR signaling in estrogen deprived MCF-7-B7 cells treated with TAM; type: cell-based
Description: These observations indicate that under the treatment conditions, nongenomic ERα action occurred to activate EGFR signaling.

[8] = test system: HOXB7 mRNA; experiment: Real time quantitative PCR analysis of HOXB7 mRNA levels; type: cell-based
Protocol: (4A) Real time quantitative PCR analysis of HOXB7 mRNA levels in MCF-7 cells. Cells were incubated in estrogen deprived condition for 72 hours [DMEM phenol red-free medium containing 5% Dextran charcoal stripped serum (DCC-FBS)]; the cells were then treated with 0.1-100 nM estrogen (E2); […]; Inset: Semi-quantitative RT-PCR analysis of HOXB7 mRNA following 1 uM TAM treatment for 24 hour. (4B) Real time quantitative PCR analysis of HOXB7. mRNA levels in MDA-MB-231 and MDA-MB-453 cells were transiently transfected with ERα expression plasmid and vector control for 48 hours. ERIN, a ERα overexpressed cell line, was used with MCF10A as a control. (4C) Immunoblot analysis of HOXB7 and ERα expression levels in transient transfectants of MDA-MB-231-ERα.
Real-time PCR of HOXB7 expression. HOXB7 gene expression was quantitated by Taqman real-time quantitative PCR in triplicate in 96-well plate using an ABI 7900HT (Applied Biosystems) using cDNA derived from our previously published cohort of tumor samples (Cancer research 62(3):827-834). The sequences of the HOXB7 PCR primer pairs and fluorogenic MGB probe (5′ to 3′), respectively, are: AAAACCTACCACTCGCGTGTTC (SEQ ID NO: 5), GGA CGG GAA GCA AGA AGC A (SEQ ID NO: 6), and VIC-CAA GCG CCT GGC TG (SEQ ID NO: 7).

[9] = test system: EGFR, MAPK, ERα and HOXB7; experiment: Immunoblot analysis of MCF-7 cells treated long-term with TAM; type: cell-based
Protocol: as §1, §2

[10] = test system: LTED cells; details: MCF-7-LTED cells; cited from earlier work
[11] = test system: EGFR, p44/42 MAPK, ARG and TGFα; experiment: EGFR activity and EGFR ligand levels in MCF-7-B7 cells after ER downregulation; type: cell-based
Protocol: as §3

[12] = test system: ERα-positive breast cancer; details: patients with acquired resistance who progress on TAM; cited from earlier work
[13] = test system: BT474 cells; experiment: Soft agar colony formation in BT474 cells; type: cell-based; details: 1 μM gefitinib and 1 μM TAM
Protocol: as §1

## COc1cc2ncnc(Nc3cccc(Cl)c3)c2cc1OC [AG1478]
[1]
  elevated expression of TGFα and HB-EGF: significantly abrogated

## CC/C(=C(\c1ccccc1)c1ccc(OCCN(C)C)cc1)c1ccccc1 [TAM, tamoxifen]
[2]; MCF-7-TMR1 cells (0.1 μM TAM for over 12 months), data not shown
  resistance to TAM treatment by colony formation assay: significant resistance to TAM treatment
[3]; TAM 1 μM
  colony formation in soft agar in the presence of tamoxifen: at frequencies similar to vehicle treated cells
[4]
  apoptosis and cell viability: increased apoptosis and decreased cell viability
[5]
  sensitivity to TAM treatment (apoptosis, cell viability): minimally sensitive
[6]
  tumor growth response to TAM: failed to respond to the inhibitory effects of TAM
[7]; MCF-7-B7 cells in estrogen deprived conditions, TAM for 24 hours, vs MCF-7-Vec cells
  active EGFR, p44/42 MAPK activity and ERα phosphorylation: significantly higher levels of active forms of EGFR, increased p44/42 MAPK activity and ERα phosphorylation
[7]; estrogen deprived MCF-7-B7 cells, 1 μM TAM for 0-30 minutes, data not shown
  phosphorylation of EGFR, p44 MAPK and ER: elevated phosphorylation of EGFR, activation of p44 MAPK, and ER phosphorylation at Serine 118
[8]; MCF-7 and T47D cells, tamoxifen in medium containing 10% FBS
  HOXB7 mRNA levels: increased
[8]; tamoxifen added to estradiol
  downregulation of HOXB7 expression by estradiol: abrogated
[9]; MCF-7-TMR cells (long-term TAM)
  HOXB7 expression: upregulated
[9]; MCF-7 cells, 0.1 μM TAM, 0, 2, 4, 6 months, data not shown
  levels of HOXB7 expression over time: progressively increasing levels of HOXB7 expression
[9]; MCF-7 cells, TAM 0.1 μM or 1 μM for over 12 months
  expression of EGFR, activated MAPK and ERα, total ERα: elevated expression of EGFR and activated MAPK and ERα, but no significant change of total ERα
[10]
  sensitivity of LTED cells: refractory

## C[C@]12CC[C@@H]3c4ccc(O)cc4CC[C@H]3[C@@H]1CC[C@@H]2O [estradiol, 17β-estradiol]
[8]; estradiol stimulation in estrogen-deprived growth conditions (5% charcoal stripped serum)
  HOXB7 expression: significantly reduced

## C[C@]12CC[C@@H]3c4ccc(O)cc4C[C@@H](CCCCCCCCC[S+]([O-])CCCC(F)(F)C(F)(F)F)[C@H]3[C@@H]1CC[C@@H]2O (stereo partly shown) [fulvestrant]
[11]; HOXB7 overexpression (MCF-7-B7 cells)
  EGFR and p44/42 MAPK activity: modestly reduced increases in EGFR and p44/42 MAPK activity
[11]; MCF-7-B7 cells
  levels of the autocrine/paracrine EGFR ligands (ARG and TGFα): significant reduction
[10]
  sensitivity of LTED cells: sensitive
[12]
  patients who respond: 20%

## COc1cc2ncnc(Nc3ccc(F)c(Cl)c3)c2cc1OCCCN1CCOCC1 [gefitinib]
[13]
  effect on TAM action, soft agar colony formation: dramatically converted TAM to a potent antagonist
[2]; MCF-7-TMR cells, 1 μM gefitinib and 1 μM TAM
  effect on TAM action, soft agar colony formation: dramatically converted TAM to a potent antagonist
[3]; 1 μM gefitinib with TAM 1 μM
  re-sensitization to TAM treatment, soft agar colony formation: significantly re-sensitized them to TAM treatment
